Several values for one entry are separate records, joined by “and”; a condition that tells them apart may be missing. Identical values can stand only once. Counter-ions that a name gives are not always drawn. Like-named read-outs stand apart in the source and are kept apart here.
Key:
[1] = for Simulated gastric fluid (pH 1.1): % remaining after 2 h/37° C. / Simulated intestinal fluid (pH 6.8): % remaining after 2 h/37° C.: simulated gi fluid
[2] = tested on: human colon circular muscle strips; format: cell-based; conditions: human colonic strips, EFS
[3] = tested on: rat colon circular muscle strips; format: cell-based; parameters: unit not given here; conditions: rat colonic strips, EFS
acetyl choline esterase = acetyl choline esterase (Homo sapiens, UniProt P22303); test: In vitro assessment with a human acetyl choline esterase preparation; format: biochemical
Sequence of acetyl choline esterase (P22303 32-614): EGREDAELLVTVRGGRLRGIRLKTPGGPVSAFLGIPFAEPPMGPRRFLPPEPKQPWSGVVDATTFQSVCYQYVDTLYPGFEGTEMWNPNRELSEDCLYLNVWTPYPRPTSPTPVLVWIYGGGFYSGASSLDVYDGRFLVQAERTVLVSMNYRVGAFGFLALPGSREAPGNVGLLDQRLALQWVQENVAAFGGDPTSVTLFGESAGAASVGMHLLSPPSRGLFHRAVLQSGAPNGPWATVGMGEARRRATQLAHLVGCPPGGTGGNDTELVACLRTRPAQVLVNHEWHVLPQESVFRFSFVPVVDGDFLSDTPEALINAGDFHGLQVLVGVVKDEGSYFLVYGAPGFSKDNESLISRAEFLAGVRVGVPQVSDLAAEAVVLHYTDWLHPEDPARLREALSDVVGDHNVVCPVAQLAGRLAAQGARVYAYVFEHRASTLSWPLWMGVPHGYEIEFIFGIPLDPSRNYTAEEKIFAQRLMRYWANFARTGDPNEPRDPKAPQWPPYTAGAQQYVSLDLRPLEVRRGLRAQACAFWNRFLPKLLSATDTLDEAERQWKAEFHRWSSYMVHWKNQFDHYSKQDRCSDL

ferret = conditions: for Total number of individual incidences of: Retching / Total number of individual incidences of: Vomiting: individual ferrets, 150 mg/kg oral, naloxone 0.5 mg/kg s.c. pretreatment, observed 2 hours
[4] = Beagle, dog, in vivo, po, 1 mg/kg
[5] = tested on: guinea pig small intestine myenteric plexus longitudinal muscle; test: tissue or blood; format: cell-based; conditions: for EC50: Cavia porcellus, read-out: EC50 for inhibition of contractility
[6] = tested on: gastro-intestinal motility in the rat; test: Charcoal propulsion test (gastro-intestinal motility) in the rat; conditions: oral; for delay of the passage of the charcoal meal (gut motility): 30 mg/kg dose or equimolar dose of prodrug
[7] = listed as meptazinol valine carbamate
[8] = female, ferret, in vivo, po, 150 mg/kg
[9] = 10 mg/kg, 60 min before charcoal, 30 min after charcoal

In the case of CC(C)[C@@H](NC(=O)OC1=C2OC3C(=O)CCC4[C@H]5CC(CC1)C2[C@@]34CCN5C)C(=O)O (stereo partly drawn) [Hydromorphone valine carbamate, hydromorphone-(S)-valine carbamate trifluoroacetate], the “Distilled water (pH 5.9): % remaining after 2 h/20° C.” value (“Distilled water (pH 5.9): % remaining” below) [1] is reported as 100%, the “Simulated gastric fluid (pH 1.1): % remaining after 2 h/37° C.” value [1] is reported as 100% and the “Simulated intestinal fluid (pH 6.8): % remaining after 2 h/37° C.” value [1] is reported as 98%.
In the case of CCC1(c2cccc(OC(=O)N[C@H](C(=O)O)C(C)C)c2)CCCCN(C)C1 (stereo partly drawn) [Meptazinol valine carbamate, meptazinol-(S)-valine carbamate trifluoroacetate], the “Mean force of contraction ± sd” value ([2]; 0.01 μM) is reported as 89.77, the “Mean force of contraction ± sd” value ([2]; 0.1 μM) is reported as 83.63 and the “Mean force of contraction ± sd” value ([2]; 0.5 μM) is reported as 79.00. For the same molecule, the “Mean force of contraction ± sd” value ([2]; 1.0 μM) was 80.56, the “Mean force of contraction ± sd” value ([2]; 10 μM) was 76.92 and the “Mean force of contraction ± sd” value ([2]; 100 μM) was 79.25. The “Mean force of contraction ± sd” value ([3]; 0.01 μM) was 104.47, the “Mean force of contraction ± sd” value ([3]; 0.1 μM) was 121.87 and the “Mean force of contraction ± sd” value ([3]; 0.5 μM) was 86.04. For the same molecule, the “Mean force of contraction ± sd” value ([3]; 1.0 μM) was 75.22, the “Mean force of contraction ± sd” value ([3]; 10 μM) was 65.57 and the “Mean force of contraction ± sd” value ([3]; 100 μM) was 75.17. For the same molecule, the “Distilled water (pH 5.9): % remaining” value [1] was 100%, the “Simulated gastric fluid (pH 1.1): % remaining after 2 h/37° C.” value [1] was 100% and the “Simulated intestinal fluid (pH 6.8): % remaining after 2 h/37° C.” value [1] was 99%. For the same molecule, the “acetyl choline esterase inhibitory action” value (acetyl choline esterase) was “loss of acetyl choline esterase inhibitory action”, the “animals demonstrating any retching and vomiting” value (ferret; group of five ferrets, comparable molar dose, 2 hours) was “only one” and the “Total number of individual incidences of: Retching” value (ferret) was 0 (4×) and 2. For the same molecule, the “Total number of individual incidences of: Vomiting” value (ferret) was 0 (4×) and 1, the “Total number of individual incidences of: Retching” value (ferret; [7]) was 2 and the “Total number of individual incidences of: Vomiting” value (ferret; [7]) was 1.
In the case of CCC1(c2cccc(O)c2)CCCCN(C)C1 (stereo not drawn) [Meptazinol], the “T½” value [4] is reported as 2.8 h, the “animals that exhibited retching and emesis” value (ferret; [8]) is reported as 50% and the “episodes of vomiting in animals that responded” value (ferret; [8]) is reported as 1-17. For the same molecule, the “retches observed in a 2 hour period in animals that responded” value (ferret; [8]) was 5-66.
In the case of CC(C)C(NC(=O)Oc1ccc2c3c1O[C@H]1C(=O)CC[C@@]4(O)[C@@H](C2)N(C)CC[C@]314)C(=O)O (stereo partly drawn) [Oxymorphone valine carbamate, oxymorphone-(S)-valine carbamate hydrochloride], the “Distilled water (pH 5.9): % remaining” value [1] is reported as 100%, the “Simulated gastric fluid (pH 1.1): % remaining after 2 h/37° C.” value [1] is reported as 100% and the “Simulated intestinal fluid (pH 6.8): % remaining after 2 h/37° C.” value [1] is reported as 97%. The Fold difference [5] was 15.5, the EC50 [5] was 200 nM and the “% change from vehicle-treated animals, Small intestine” value (shortened to “% change … Small intestine”) ([6]; 10 mg/kg) was −4.9%. For the same molecule, the “% change from vehicle-treated animals, Total gut length” value (“% change … Total gut length” for short) ([6]; 10 mg/kg) was −3.9%, the “Group mean distance travelled by charcoal as % of (±sd) Small intestine” value [6, 9] was 68.5 ± 7.85% and the “Group mean distance travelled by charcoal as % of (±sd) Total gut length” value [6, 9] was 58.9 ± 6.95%. The “% change … Small intestine” value ([6]; 30 mg/kg) was −13.7%, the “% change … Total gut length” value ([6]; 30 mg/kg) was −13.1% and the “delay of the passage of the charcoal meal (gut motility)” value [6] was 14%.
In the case of CN1CC[C@]23c4c5ccc(O)c4O[C@H]2C(=O)CC[C@@]3(O)[C@H]1C5 [Oxymorphone], the “T½” value [4] is reported as 2.2 h, the EC50 [5] is reported as 12.9 nM and the “% change … Small intestine” value ([6]; 1 mg/kg) is reported as −5.0%. The “% change … Total gut length” value ([6]; 1 mg/kg) was −4.5%, the “% change … Small intestine” value ([6]; 3 mg/kg) was −9.5% and the “% change … Total gut length” value ([6]; 3 mg/kg) was −9.4%. For the same molecule, the “% change … Small intestine” value ([6]; 10 mg/kg) was −24.1%, the “% change … Total gut length” value ([6]; 10 mg/kg) was −24.1% and the “% change … Small intestine” value ([6]; 30 mg/kg) was −69.5%. For the same molecule, the “% change … Total gut length” value ([6]; 30 mg/kg) was −69.8% and the “delay of the passage of the charcoal meal (gut motility)” value [6] was 70%.
